Values after ≈ are worked out from the molar mass of the structure shown. Active and inactive are the calls of the source. The calls are words filed in the database; no cut-off is given here.
Key:
Acinetobacter baumannii [1] = experiment: Antibacterial activity against colistin-resistant Acinetobacter baumannii ATCC 17978 mutant generated from seven serial passages by checkerboard assay; type: functional
Acinetobacter baumannii [2] = experiment: Antibacterial activity against wild type Acinetobacter baumannii ATCC 17978 assessed as resistant development at sub-MIC measured after 7 days of passaging by microbroth dilution method relative to control; type: functional
Acinetobacter baumannii [3] = experiment: Antibacterial activity against novobiocin-resistant Acinetobacter baumannii ATCC 17978 mutant generated from seven serial passages by checkerboard assay; type: functional
Acinetobacter baumannii [4] = experiment: Antibacterial activity against wild type Acinetobacter baumannii ATCC 17978 by checkerboard assay; type: functional
Pseudomonas aeruginosa [5] = experiment: Induction of outer membrane permeabilization in Pseudomonas aeruginosa PAO1 assessed as increase in accumulation of NPN by measuring fluorescence intensity at 14 ug/ml measured immediately by NPN dye uptake assay; type: organism-based
Acinetobacter baumannii [6] = experiment: Antibacterial activity against novobiocin and test compound-resistant Acinetobacter baumannii ATCC 17978 mutant generated from seven serial passages in presence of novobiocin by checkerboard assay; type: functional
[7] = Toxicity in Galleria mellonella larvae MDR Acinetobacter baumannii isolate assessed as mortality at 100 mg/kg measured after 24 hrs relative to control; type: ADME, organism-based; conditions: in vivo, read-out: Activity
Klebsiella pneumoniae = experiment: Bacteriostatic activity against Klebsiella pneumoniae 116381 at 50.4 uM in LB media after 24 hrs by time-kill assay; type: functional
Escherichia coli = experiment: Bactericidal activity against Escherichia coli ATCC […] at 50.4 uM in LB media after 24 hrs by time-kill assay; type: functional, organism-based
Pseudomonas aeruginosa [8] = experiment: Bacteriostatic activity against Pseudomonas aeruginosa PAO1 at 50.4 uM in LB media after 24 hrs by time-kill assay; type: functional, organism-based
Enterococcus faecium = experiment: Antibacterial activity against Enterococcus faecium ATCC 27270; type: functional
Acinetobacter baumannii [9] = experiment: Bacteriostatic activity against Acinetobacter baumannii ATCC 17978 at 50.4 uM in LB media after 24 hrs by time-kill assay; type: functional, organism-based
Acinetobacter baumannii [10] = experiment: Antibacterial activity against wild type Acinetobacter baumannii ATCC 17978 assessed as resistant development at sub-MIC measured after 5 days of passaging by microbroth dilution method relative to control; type: functional
Staphylococcus aureus = experiment: Antibacterial activity against methicillin-resistant Staphylococcus aureus ATCC 33592; type: functional
Acinetobacter baumannii [11] = experiment: Antibacterial activity against wild type Acinetobacter baumannii ATCC 17978 assessed as resistant development at sub-MIC measured after 3 days of passaging by microbroth dilution method relative to control; type: functional
[12] = system: Staphylococcus epidermidis; experiment: Antibacterial activity against methicillin-resistant Staphylococcus epidermidis 61589; type: functional

| Structure (SMILES) | MIC (Acinetobacter baumannii [1]) | fold change (FC) (Acinetobacter baumannii [2]) | MIC (Acinetobacter baumannii [3]) | MIC (Acinetobacter baumannii [4]) | Activity (Pseudomonas aeruginosa [5]) | MIC (Acinetobacter baumannii [6]) | mortality at 24 h [7] | Activity (Klebsiella pneumoniae) | Activity (Escherichia coli) | Activity (Pseudomonas aeruginosa [8]) | MIC (Enterococcus faecium) | Activity (Acinetobacter baumannii [9]) | fold change (FC) (Acinetobacter baumannii [10]) | MIC (Staphylococcus aureus) | fold change (FC) (Acinetobacter baumannii [11]) | MIC [12] |
| --- | --- | --- | --- | --- | --- | --- | --- | --- | --- | --- | --- | --- | --- | --- | --- | --- |
| NC[C@H]1O[C@H](O[C@H]2[C@H](O)[C@@H](O[C@H]3O[C@H](CO)[C@@H](O)[C@H](N)[C@H]3O)[C@H](N)C[C@@H]2N)[C@H](N)C[C@@H]1O [TOBRAMYCIN] | 0.25 µg/mL | 512 | 1 µg/mL | 1 µg/mL | inactive | 1 µg/mL | – | – | – | – | – | – | – | – | – | – |
| CO[C@@H]1[C@@H](OC(N)=O)[C@@H](O)[C@H](Oc2ccc3c(O)c(NC(=O)c4ccc(O)c(CC=C(C)C)c4)c(=O)oc3c2C)OC1(C)C [NOVOBIOCIN] | < 0.031 µg/mL | – | 2050 µg/mL | 16 µg/mL | – | 128 µg/mL | 100% | -1.87 CFU/ml | Active | Active | 2 µg/mL (≈ 3.26 µM) | Active | 256 | 0.125 µg/mL (≈ 0.204 µM) | 64 | 0.0625 µg/mL (≈ 0.102 µM) |

From ChEMBL document CHEMBL4376820, “Homodimeric Tobramycin Adjuvant Repurposes Novobiocin as an Effective Antibacterial Agent against Gram-Negative Bacteria” (J Med Chem, 2019)
